From patent publication US20250171744A1, “METHODS OF REPROGRAMMING SOMATIC CELLS AND MATERIALS RELATED THERETO” (CITY OF HOPE, priority 2019, published 2025)
“Also recorded” adds a separate entry of the source.

Assays:
293T cells [1] = assay: Embryoid body formation from SSEA4 positive sorted cells (FIG. 27); type: cell-based, human
Description: HEK293T and HF57 were treated with MTX and PTX for 7 or more days in low methionine condition. SSEA4 positive cells were sorted using cell sorter and maintained on mTeSR™ Plus medium supplemented with HT.
293T cells were treated with MTX and/or PTX for 10 or more days. SSEA4 positive cells were sorted using single cell sorter and maintained on mTeSR1 medium. […] FIGS. 28-29 show the three-germ layer immunostaining of putative pluripotent stem cells derived from 293T cells treated with MTX and PTX.

[2] = tested on: human embryonic kidney cells (293T); assay: Cell proliferation under prolonged MTX/PTX application, with or without HT (FIG. 16); type: cell-based; settings: for cell proliferation: prolonged, controlled application, 5% dialyzed-FBS DMEM, 500 nM MTX for 7-days
Description: The cells were grown in 5% dialyzed-FBS DMEM medium. 293T cells were treated with 500 nM MTX, and HF57 cells and HDF cells were treated with 1 μM MTX for 7-days. Because inhibition of DHFR and TS by folate antagonists (MTX, PTX) results in a deficiency in the cellular pools of thymidylate and purines and thus a decrease in nucleic acid synthesis, sodium hypoxanthine (10 mM) and thymidine (1.6 mM) were added to the medium to overcome the effects of MTX and PTX. […] The cells were harvested for DNA/RNA isolation and analyzed for gene expression and DNA methylation.
MTX and PTX are antifolates that inhibit enzymes (particularly thymidylate synthase and dihydrofolate reductase) involved in folate metabolism and purine and pyrimidine synthesis (100-103). Since these compounds are competitive inhibitors of […], these compounds were exogenously applied to the WT (HEK 293T and HF57) cells. As shown in FIGS. 16-17, application of MTX and PTX to the normal growing WT cells produced the phenotypes similar to the FPGS^ko. Several concentrations of MTX ranging from 75 nM to 500 nM were tested. The impact of MTX depended on the cell lines, exposure time, and the supplemental media. A concentration as low as 75 nM achieved similar results when a lower concentration of FBS was used, and the best results for 293T cells were obtained using MTX at a concentration ranging between 200 nM and 500 nM. Further, the pharmacological impacts of folate inhibitors on global DNA methylation were examined. 293T (control) cells were treated with 500 nM MTX and 1 μM PTX for at least 7 days before harvesting the cells and isolating the genomic DNA (gDNA). Equal amount of gDNA (100 ng) was analyzed with 5mC enzyme-linked immunosorbent assay (ELISA) (EpiGentek).

293T cells [3] = assay: qRT-PCR relative transcript levels of ANKRD1 and ANOS (FIG. 22, 23); type: cell-based, human; settings: vs control cells
Description: To validate microarray results, quantitative 2-step RT-PCR was performed. One microgram of total RNA was reverse transcribed to first-strand cDNA with the Qiagen cDNA Synthesis Kit (Qiagen), and this cDNA was subsequently used as a template for quantitative PCR with gene-specific primers. The ubiquitous β-actin gene served as a control for constitutive gene expression. The quantitative RT-PCR (qRT-PCR) reactions were performed using Power Sybr Green PCR Master Mix (Thermo Fisher Scientific) on a CFX96 Touch Real-Time PCR Detection System (Bio-Rad, Hercules, CA, USA). Relative expression levels (2^−ΔCt) were calculated according to the Livak and Schmittgen method (40). Expression levels of each gene were compared with the expression level of actin.

293T cells [4] = assay: Global DNA methylation, 5mC ELISA (FIG. 18); type: cell-based, human; settings: 500 nM MTX, 1 μM PTX; 7-days; vs untreated cells
Description: Equal amount of DNA (100 ng) was analyzed with 5mC enzyme-linked immunosorbent assay (ELISA) (EpiGentek). […] Error bars represent the standard error for at least three independent experiments and three technical replicates.
Global DNA methylation measurement Global 5-methylcytosine (5-mC) levels were quantified using the MethylFlash Methylated DNA Quantification Kits (Epigentek, Farmingdale, NY, USA). The DNA concentration was determined using the Qubit Assay (Thermo Fisher Scientific) according to the manufacturer's protocol. Briefly, 100 ng of DNA was used for incubation with both capture and detection antibodies using MethylFlash Methylated DNA Quantification Kit (Colorimetric) from Epigentek. Subsequently, measurements of the absorbance of the sample at 450 nm in a microplate spectrophotometer (BioTek Instruments, Winooski, VT, USA) were performed with the percentage of the whole genome 5-mC calculation according to manufacturer's instructions. Genomic methylation levels in study samples were expressed as percentage of 5-mC.
MTX and PTX are antifolates that inhibit enzymes (particularly thymidylate synthase and dihydrofolate reductase) involved in folate metabolism and purine and pyrimidine synthesis (100-103). […] Equal amount of gDNA (100 ng) was analyzed with 5mC enzyme-linked immunosorbent assay (ELISA) (EpiGentek).

HF57 cells = assay: Transcriptomics (RNAseq) of MTX and PTX treated cells (FIG. 20); type: cell-based, human; settings: for pluripotency markers significantly enriched: compared to controls
Text: RNAseq data validated that application of MTX and PTX affected C1 metabolism in the treated cells. […] The global transcriptional change across the groups compared was visualized by a volcano plot (FIGS. 20A-20B). Each data point in the scatter plot represents a gene. The log 2 fold change of each gene is represented on the x-axis and the log 10 of its adjusted p-value is on the y-axis. Genes with an adjusted p-value less than 0.05 and a log 2 fold change greater than 1 are indicated by red dots. […] Genes with an adjusted p-value less than 0.05 and a log 2 fold change less than −1 are indicated by green dots. […] Heat map visualization of the selected 67 differentially expressed genes. Original values are ln(x)-transformed. Rows are centered; unit variance scaling is applied to rows. Red indicates higher expression, whereas low expression indicated in green (FIG. 20C). For visual clarity, expression of selected genes is presented in groups based on their relative values (FIG. 20D).
The quiescent nature of the MTX and PTX cells and the association of demethylation with the generation of induced pluripotent stem cells led to examining markers for stem cells formation. The 293T and HF57 cells were grown on 5% dialyzed FBS DMEM medium. DMEM without methionine, DMEM with 15 mg/L (half dose) and DMEM with 30 mg/L (regular DMEM) were used to grow the cells. Once the cells attained 70% confluency, HF57 were treated with 1-μM MTX or PTX and HEK293T were treated with 500 nM MTX or 1 μM PTX. The cells were treated with MTX or PTX for 7-days, and subsequently the medium was replaced with N2B27 medium (Thermo Fisher Scientific, USA). The cells were grown in N2B27 medium for 15 days which supported undifferentiated growth of human embryonic stem cells. Subsequently, these cells were maintained in MTeSR medium supplemented with sodium hypoxanthine and thymidine (HT) for 15 or more days. These conditions supported prolonged self-renewal of putative pluripotent cells, and they were able to form colonies and later embryoid bodies in vitro. Subsequently, the cells were assessed for markers linked to stem cells. Transcriptomics and qRT-PCR were performed to examine whether ES cell marker genes were expressed in these cells. Both MTX and PTX treated cells expressed the marker genes (FIGS. 20-21 and 25-26). […] To authenticate these findings, two key pluripotency markers (SSEA-4 and TRA 1-60) were examined using immunofluorescence.

[5] = treated 7 or more days, low methionine, mTeSR Plus + HT, after 15-days
[6] = treated 10 or more days, mTeSR1 medium, after 10-days

| SMILES | embryoid body formation (293T cells [1]; [5]) | embryoid body formation (293T cells [1]; [6]) | cell proliferation [2] | relative transcripts level of ANOS (293T cells [3]) | relative transcripts level of Ankyrin repeat domain 1 (ANKRD1) (293T cells [3]) | global DNA methylation (5mC content) (293T cells [4]) | LIN28A enrichment compared to controls (HF57 cells) [fold] | NANOG enrichment compared to controls (HF57 cells) [fold] | SOX2 enrichment compared to controls (HF57 cells) [fold] | one carbon-metabolism and DNA methylation related genes significantly down-regulated (HF57 cells) | one carbon-metabolism and DNA methylation related genes upregulated (HF57 cells) [genes] | pluripotency markers significantly enriched (HF57 cells) | concentration as low as which achieved similar results ([2]; when a lower concentration of FBS was used) [nM] |
| --- | --- | --- | --- | --- | --- | --- | --- | --- | --- | --- | --- | --- | --- |
| Nc1nc2[nH]cc(CCc3ccc(C(=O)N[C@@H](CCC(=O)O)C(=O)O)cc3)c2c(=O)[nH]1 [PTX, pemetrexed] | formed embryoid bodies | started forming embryoid bodies | reduced cell proliferation | significantly higher | significantly higher | significantly lower levels of DNA methylation; also recorded: significant reduction in global DNA methylation | 6 | 6 | 5 | about 41 genes | 9 | about 50 |  |
| CN(Cc1cnc2nc(N)nc(N)c2n1)c1ccc(C(=O)N[C@@H](CCC(=O)O)C(=O)O)cc1 [MTX, methotrexate] | formed embryoid bodies | started forming embryoid bodies | reduced cell proliferation | significantly higher | significantly higher | significantly lower levels of DNA methylation; also recorded: significant reduction in global DNA methylation | 6 | 6 | 5 | about 41 genes | 9 | about 50 | 75 |
